Source: ChEMBL document CHEMBL1949530, “Fatty acid amide hydrolase inhibitors. 3: tetra-substituted azetidine ureas with in vivo activity” (Bioorg Med Chem Lett, 2012)
Converted amounts (≈) assume the structure as drawn.

Tests used:
[1] = Drug metabolism in rat liver microsomes after 10 mins; assay type: ADME, Microsome; conditions: read-out: Drug metabolism
[2] = molecular target: T1, Fatty-acid amide hydrolase 1 (Rattus norvegicus, UniProt P97612); experiment: Inhibition of rat FAAH using 7-amino-4-methylcoumarine amide as substrate preincubated for 1 hr by fluorimetry
T1 sequence (P97612 whole entry): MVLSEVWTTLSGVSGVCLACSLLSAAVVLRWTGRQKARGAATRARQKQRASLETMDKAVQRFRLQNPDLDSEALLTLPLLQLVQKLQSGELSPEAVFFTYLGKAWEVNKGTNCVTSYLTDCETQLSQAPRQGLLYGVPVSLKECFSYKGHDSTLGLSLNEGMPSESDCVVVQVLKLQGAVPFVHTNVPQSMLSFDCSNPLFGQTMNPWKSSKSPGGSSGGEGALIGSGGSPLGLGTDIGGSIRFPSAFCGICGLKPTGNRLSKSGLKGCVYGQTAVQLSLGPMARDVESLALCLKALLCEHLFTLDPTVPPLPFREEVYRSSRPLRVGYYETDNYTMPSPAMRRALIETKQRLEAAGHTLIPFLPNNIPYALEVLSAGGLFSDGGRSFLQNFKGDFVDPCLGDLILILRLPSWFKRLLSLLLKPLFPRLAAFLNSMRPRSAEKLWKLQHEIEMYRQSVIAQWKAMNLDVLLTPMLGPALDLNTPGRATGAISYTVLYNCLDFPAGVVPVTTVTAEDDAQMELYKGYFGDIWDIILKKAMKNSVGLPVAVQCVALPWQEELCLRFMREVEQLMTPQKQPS

[3] = molecular target: T2, Fatty-acid amide hydrolase 1 (Homo sapiens, UniProt O00519); experiment: Inhibition of human FAAH expressed in CHO cells using 7-amino-4-methylcoumarine amide as substrate preincubated for 1 hr by fluorimetry; assay type: cell-based
T2 sequence (O00519 whole entry): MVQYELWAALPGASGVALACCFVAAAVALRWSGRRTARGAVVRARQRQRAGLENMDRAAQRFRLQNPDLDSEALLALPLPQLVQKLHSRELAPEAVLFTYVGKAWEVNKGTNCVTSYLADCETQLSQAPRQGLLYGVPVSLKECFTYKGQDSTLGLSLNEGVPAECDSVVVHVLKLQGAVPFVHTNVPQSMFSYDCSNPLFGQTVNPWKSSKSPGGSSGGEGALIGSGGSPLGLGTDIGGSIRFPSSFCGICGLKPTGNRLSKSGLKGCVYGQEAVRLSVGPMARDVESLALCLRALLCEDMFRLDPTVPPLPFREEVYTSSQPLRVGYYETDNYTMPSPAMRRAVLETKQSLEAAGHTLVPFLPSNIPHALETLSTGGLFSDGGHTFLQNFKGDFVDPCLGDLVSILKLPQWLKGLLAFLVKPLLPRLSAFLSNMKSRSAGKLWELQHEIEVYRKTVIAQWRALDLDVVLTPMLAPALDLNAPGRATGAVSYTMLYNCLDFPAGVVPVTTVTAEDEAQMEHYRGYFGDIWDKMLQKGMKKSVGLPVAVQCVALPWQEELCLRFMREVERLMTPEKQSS

[4] = Drug metabolism in human liver microsomes after 10 mins; assay type: ADME, Microsome; conditions: read-out: Drug metabolism
[5] = molecular target: Cannabinoid receptor 1 (Homo sapiens, UniProt P21554); experiment: Displacement of [3H]SR141716A from human CB1 receptor
[6] = molecular target: Cannabinoid receptor 2 (Homo sapiens, UniProt P34972); experiment: Displacement of [3H]CP55940 from human CB2 receptor
[7] = Oral bioavailability in rat at 4 mg/kg; assay type: ADME, organism-based; conditions: in vivo
[8] = Apparent permeability from apical to basolateral side of human Caco2 cells; assay type: ADME, cell-based; conditions: Caco-2
[9] = molecular target: T3, Monoglyceride lipase (Homo sapiens, UniProt Q99685); experiment: Inhibition of human recombinant N-His6-tagged MAGL expressed in Escherichia coli using 7-Hydroxycoumarinyl arachidonate as substrate by fluorimetry
T3 sequence (Q99685 whole entry): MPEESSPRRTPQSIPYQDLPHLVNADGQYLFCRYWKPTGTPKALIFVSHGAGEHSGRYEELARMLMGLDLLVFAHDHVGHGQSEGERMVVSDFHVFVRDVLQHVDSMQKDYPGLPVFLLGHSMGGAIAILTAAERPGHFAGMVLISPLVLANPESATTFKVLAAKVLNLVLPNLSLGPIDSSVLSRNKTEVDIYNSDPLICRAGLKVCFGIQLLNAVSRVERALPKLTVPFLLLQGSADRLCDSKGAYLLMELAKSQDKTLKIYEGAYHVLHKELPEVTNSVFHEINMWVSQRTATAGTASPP

[10] = molecular target: Voltage-gated inwardly rectifying potassium channel KCNH2 (Homo sapiens, UniProt Q12809); experiment: Inhibition of human ERG
[11] = tested on: Rattus norvegicus; experiment: Inhibition of FAAH in rat assessed as AEA level in brain at 1 mg/kg, iv administered 30 mins prior to anandamide loading measured after 30 mins relative to vehicle treated control; assay type: functional
[12] = Aqueous solubility of the compound at pH 1; assay type: physicochemical; conditions: aqueous medium
[13] = molecular target: T4, Cytochrome P450 1A2 (Homo sapiens, UniProt P05177); experiment: Inhibition of CYP1A2; assay type: ADME
T4 sequence (P05177 whole entry): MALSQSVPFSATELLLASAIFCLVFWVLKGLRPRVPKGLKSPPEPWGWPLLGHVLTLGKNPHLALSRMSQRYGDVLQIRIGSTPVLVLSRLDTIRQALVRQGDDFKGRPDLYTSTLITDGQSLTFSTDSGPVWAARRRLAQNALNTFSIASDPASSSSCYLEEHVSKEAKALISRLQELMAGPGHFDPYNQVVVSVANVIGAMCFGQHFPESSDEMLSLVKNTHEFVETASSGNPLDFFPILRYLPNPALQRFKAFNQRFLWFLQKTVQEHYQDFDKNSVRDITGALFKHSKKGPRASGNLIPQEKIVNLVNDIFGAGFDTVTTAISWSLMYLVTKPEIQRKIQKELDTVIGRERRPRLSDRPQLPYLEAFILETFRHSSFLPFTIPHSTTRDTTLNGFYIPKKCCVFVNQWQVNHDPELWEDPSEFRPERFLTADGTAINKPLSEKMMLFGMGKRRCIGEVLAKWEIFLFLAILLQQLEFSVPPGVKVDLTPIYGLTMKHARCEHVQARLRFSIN

[14] = tested on: Brain; experiment: Drug uptake in rat brain at 1 mg/kg, iv; assay type: ADME, organism-based; design: dose 1 mg/kg, route intravenous; conditions: in vivo
[15] = tested on: Plasma; experiment: Plasma concentration in rat at 0.3 mg/kg, iv; assay type: ADME, organism-based; design: dose 0.3 mg/kg, route intravenous; conditions: in vivo
[16] = Volume of distribution in rat at 2 mg/kg, iv; assay type: ADME, organism-based; design: dose 2 mg/kg, route intravenous; conditions: in vivo
[17] = tested on: Plasma; experiment: Plasma concentration in rat at 3 mg/kg, iv; assay type: ADME, organism-based; design: dose 3 mg/kg, route intravenous; conditions: in vivo
[18] = Cmax in rat at 4 mg/kg, po; assay type: ADME, organism-based; design: dose 4 mg/kg, route oral; conditions: in vivo
[19] = tested on: Plasma; experiment: Plasma concentration in rat at 1 mg/kg, iv; assay type: ADME, organism-based; design: dose 1 mg/kg, route intravenous; conditions: in vivo
[20] = tested on: Rattus norvegicus; experiment: Inhibition of FAAH in rat assessed as AEA level in brain at 0.3 mg/kg, iv administered 30 mins prior to anandamide loading measured after 30 mins relative to vehicle treated control; assay type: functional
[21] = molecular target: Cytochrome P450 3A4 (Homo sapiens, UniProt P08684); experiment: Inhibition of CYP3A4; assay type: ADME
[22] = tested on: Plasma; experiment: Ratio of plasma concentration in rat hepatic portal vein to plasma concentration in rat vena cava at 4 mg/kg, po; assay type: ADME, organism-based; design: dose 4 mg/kg, route oral; conditions: in vivo
[23] = tested on: Rattus norvegicus; experiment: Inhibition of FAAH in rat assessed as AEA level in brain at 3 mg/kg, iv administered 30 mins prior to anandamide loading measured after 30 mins relative to vehicle treated control; assay type: functional
[24] = tested on: Rattus norvegicus; experiment: Inhibition of FAAH in iv dosed rat assessed as AEA level in brain administered 30 mins prior to anandamide loading measured after 30 mins; assay type: functional, organism-based
[25] = Aqueous solubility of the compound at pH 6.8; assay type: physicochemical; conditions: aqueous medium
[26] = tested on: Brain; experiment: Drug uptake in rat brain at 3 mg/kg, iv; assay type: ADME, organism-based; design: dose 3 mg/kg, route intravenous; conditions: in vivo
[27] = molecular target: Cytochrome P450 2D6 (Homo sapiens, UniProt P10635); experiment: Inhibition of CYP2D6; assay type: ADME
[28] = tested on: Brain; experiment: Drug uptake in rat brain at 0.3 mg/kg, iv; assay type: ADME, organism-based; design: dose 0.3 mg/kg, route intravenous; conditions: in vivo
[29] = Plasma clearance in rat at 2 mg/kg, iv; assay type: ADME, organism-based; design: dose 2 mg/kg, route intravenous
[30] = molecular target: Cytochrome P450 2C9 (Homo sapiens, UniProt P11712); experiment: Inhibition of CYP2C9; assay type: ADME
[31] = molecular target: Cytochrome P450 2C19 (Homo sapiens, UniProt P33261); experiment: Inhibition of CYP2C19; assay type: ADME
[32] = Apparent permeability from basolateral to apical side of human Caco2 cells; assay type: ADME, cell-based; conditions: Caco-2

Chain of Cannabinoid receptor 1 (P21554 whole entry): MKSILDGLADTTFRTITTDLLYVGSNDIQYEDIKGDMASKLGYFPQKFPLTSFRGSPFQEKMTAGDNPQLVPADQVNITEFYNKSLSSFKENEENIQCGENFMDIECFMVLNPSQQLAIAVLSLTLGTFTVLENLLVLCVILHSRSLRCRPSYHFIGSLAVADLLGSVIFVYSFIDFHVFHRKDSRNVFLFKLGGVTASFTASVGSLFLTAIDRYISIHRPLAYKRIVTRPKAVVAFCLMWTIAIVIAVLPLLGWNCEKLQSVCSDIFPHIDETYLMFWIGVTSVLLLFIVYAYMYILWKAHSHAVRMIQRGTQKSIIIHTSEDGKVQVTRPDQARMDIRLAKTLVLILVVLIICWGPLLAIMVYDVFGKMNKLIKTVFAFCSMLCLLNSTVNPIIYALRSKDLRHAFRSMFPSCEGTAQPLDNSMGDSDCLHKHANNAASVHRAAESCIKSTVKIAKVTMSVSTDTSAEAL
Chain of Cannabinoid receptor 2 (P34972 whole entry): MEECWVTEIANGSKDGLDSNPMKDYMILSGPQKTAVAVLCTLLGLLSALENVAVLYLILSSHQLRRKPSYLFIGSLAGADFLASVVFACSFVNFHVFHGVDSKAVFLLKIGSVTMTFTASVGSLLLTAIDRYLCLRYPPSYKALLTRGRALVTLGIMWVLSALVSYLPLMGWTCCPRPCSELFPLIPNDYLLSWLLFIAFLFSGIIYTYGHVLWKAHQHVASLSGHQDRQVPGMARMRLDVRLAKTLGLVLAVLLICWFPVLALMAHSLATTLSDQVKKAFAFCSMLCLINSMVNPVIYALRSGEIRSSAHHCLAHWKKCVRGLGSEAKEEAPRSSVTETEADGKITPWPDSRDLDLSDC
Chain of Cytochrome P450 2D6 (P10635 whole entry): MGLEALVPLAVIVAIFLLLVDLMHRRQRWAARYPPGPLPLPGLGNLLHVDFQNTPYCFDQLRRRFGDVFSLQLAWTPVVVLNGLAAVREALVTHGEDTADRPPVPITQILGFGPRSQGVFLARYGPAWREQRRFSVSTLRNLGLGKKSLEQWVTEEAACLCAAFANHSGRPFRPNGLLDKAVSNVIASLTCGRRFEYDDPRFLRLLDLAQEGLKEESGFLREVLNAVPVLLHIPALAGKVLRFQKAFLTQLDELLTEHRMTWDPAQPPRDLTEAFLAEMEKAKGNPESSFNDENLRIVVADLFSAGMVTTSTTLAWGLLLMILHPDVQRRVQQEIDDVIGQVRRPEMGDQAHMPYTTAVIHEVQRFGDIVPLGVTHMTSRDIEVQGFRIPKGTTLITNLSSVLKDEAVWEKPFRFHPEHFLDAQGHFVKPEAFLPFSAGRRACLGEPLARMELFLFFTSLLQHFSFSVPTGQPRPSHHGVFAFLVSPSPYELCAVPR
Chain of Cytochrome P450 2C9 (P11712 whole entry): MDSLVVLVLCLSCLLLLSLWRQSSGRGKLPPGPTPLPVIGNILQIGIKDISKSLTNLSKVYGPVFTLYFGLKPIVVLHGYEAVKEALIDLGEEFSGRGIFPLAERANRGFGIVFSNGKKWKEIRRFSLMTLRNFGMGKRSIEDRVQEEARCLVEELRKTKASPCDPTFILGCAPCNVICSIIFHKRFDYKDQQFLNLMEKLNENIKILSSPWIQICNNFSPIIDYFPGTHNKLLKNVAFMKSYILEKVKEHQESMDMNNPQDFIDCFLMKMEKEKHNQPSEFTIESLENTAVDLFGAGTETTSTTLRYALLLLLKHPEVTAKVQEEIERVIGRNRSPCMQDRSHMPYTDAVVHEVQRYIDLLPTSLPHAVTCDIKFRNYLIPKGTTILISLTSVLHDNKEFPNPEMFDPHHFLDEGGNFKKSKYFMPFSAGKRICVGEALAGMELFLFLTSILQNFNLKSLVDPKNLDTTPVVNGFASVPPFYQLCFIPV
Chain of Cytochrome P450 3A4 (P08684 whole entry): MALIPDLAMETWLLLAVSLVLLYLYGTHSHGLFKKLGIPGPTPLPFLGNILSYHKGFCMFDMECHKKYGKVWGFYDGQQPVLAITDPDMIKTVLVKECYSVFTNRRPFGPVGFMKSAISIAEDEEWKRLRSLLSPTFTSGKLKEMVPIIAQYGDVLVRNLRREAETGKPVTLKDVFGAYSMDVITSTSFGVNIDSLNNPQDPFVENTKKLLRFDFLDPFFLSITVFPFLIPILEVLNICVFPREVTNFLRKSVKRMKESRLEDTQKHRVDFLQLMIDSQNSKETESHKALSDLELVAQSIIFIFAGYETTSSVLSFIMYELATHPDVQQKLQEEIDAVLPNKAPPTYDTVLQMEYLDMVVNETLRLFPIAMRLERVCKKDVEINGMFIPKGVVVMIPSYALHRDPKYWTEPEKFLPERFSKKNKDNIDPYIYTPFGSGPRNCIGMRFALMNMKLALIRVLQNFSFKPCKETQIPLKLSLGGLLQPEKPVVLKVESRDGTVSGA
Chain of Voltage-gated inwardly rectifying potassium channel KCNH2 (Q12809 whole entry): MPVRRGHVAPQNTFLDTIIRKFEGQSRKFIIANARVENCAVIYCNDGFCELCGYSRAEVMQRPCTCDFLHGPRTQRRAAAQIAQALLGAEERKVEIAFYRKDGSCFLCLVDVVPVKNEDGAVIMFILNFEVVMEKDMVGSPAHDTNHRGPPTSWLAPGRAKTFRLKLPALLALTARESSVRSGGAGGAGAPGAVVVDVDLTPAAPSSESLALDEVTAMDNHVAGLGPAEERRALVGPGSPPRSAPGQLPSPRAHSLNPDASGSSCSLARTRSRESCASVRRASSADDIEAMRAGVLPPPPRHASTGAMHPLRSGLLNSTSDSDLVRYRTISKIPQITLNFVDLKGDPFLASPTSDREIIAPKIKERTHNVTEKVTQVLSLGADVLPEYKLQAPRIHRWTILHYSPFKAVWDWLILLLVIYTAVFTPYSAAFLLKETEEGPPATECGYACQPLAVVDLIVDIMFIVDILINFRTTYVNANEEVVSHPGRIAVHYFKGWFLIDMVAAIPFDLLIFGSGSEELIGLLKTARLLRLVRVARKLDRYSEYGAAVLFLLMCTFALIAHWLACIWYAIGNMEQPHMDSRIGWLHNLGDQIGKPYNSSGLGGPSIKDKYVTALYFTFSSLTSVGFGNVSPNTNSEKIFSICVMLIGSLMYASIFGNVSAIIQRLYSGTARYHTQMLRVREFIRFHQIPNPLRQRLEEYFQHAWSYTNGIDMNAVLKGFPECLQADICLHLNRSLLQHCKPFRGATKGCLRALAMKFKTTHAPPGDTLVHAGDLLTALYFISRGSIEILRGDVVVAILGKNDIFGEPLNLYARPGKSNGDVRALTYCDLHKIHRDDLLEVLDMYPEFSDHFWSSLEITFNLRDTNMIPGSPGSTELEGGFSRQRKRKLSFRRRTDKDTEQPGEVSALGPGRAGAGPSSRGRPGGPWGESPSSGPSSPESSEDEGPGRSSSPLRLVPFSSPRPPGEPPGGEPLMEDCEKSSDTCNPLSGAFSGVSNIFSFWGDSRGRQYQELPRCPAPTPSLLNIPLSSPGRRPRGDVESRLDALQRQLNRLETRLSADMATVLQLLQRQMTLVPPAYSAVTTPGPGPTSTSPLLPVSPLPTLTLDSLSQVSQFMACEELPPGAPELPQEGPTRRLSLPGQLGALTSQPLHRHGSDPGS
Chain of Cytochrome P450 2C19 (P33261 whole entry): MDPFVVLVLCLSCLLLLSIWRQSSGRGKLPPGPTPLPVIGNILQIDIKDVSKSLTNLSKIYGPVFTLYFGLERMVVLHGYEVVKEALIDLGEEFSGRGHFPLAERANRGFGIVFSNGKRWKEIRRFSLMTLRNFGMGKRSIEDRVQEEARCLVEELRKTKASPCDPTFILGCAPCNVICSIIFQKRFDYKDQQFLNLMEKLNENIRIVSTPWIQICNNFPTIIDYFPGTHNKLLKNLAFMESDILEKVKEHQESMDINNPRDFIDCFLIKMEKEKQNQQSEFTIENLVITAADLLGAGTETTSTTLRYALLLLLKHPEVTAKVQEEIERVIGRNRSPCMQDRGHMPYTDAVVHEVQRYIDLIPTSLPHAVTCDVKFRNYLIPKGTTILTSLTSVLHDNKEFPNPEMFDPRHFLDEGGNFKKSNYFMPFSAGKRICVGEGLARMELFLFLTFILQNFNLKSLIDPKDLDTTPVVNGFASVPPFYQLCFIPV

## CN(Cc1ccccc1)C(=O)N1CC(O[C@H](c2ccc(Cl)cc2)c2cccnc2Cl)C1
[1]
  metabolised at 10 min: 95%
[2]
  IC50: 4.53 µM
[3]
  IC50: 40.8 µM
[4]
  metabolised at 10 min: 92%
[5]
  Ki: 0.0015 µM
[6]
  Ki: 0.49 µM

## CN(Cc1ccccc1)C(=O)N1CC(O[C@@H](c2ccc(Cl)cc2)c2cccnc2Cl)C1
[1]
  metabolised at 10 min: 98%
[2]
  IC50: 0.094 µM
[3]
  IC50: 0.887 µM
[4]
  metabolised at 10 min: 94%
[5]
  Ki: 0.249 µM
[6]
  Ki: 4.02 µM

## O=C(N1CCCCC1)N1CC(O[C@@H](c2ccc(Cl)cc2)c2cccnc2Cl)C1
[7]
  bioavailability: 2.4%
[8]
  Papp A→B: 31.7 ×10⁻⁶ cm/s
[1]
  metabolised at 10 min: 98%
[9]
  IC50: 22.3 µM
[10]
  IC50: 30.8 µM
[11]
  fold change (FC): 3.3
[12]
  solubility: 158 µM (≈ 66.4 µg/mL)
[2]
  IC50: 0.112 µM
[13]
  IC50: > 10 µM
[3]
  IC50: 0.973 µM
[14]
  Drug uptake: 79 ng/g
[15]
  Cp: 8.5 ng/g
[4]
  metabolised at 10 min: 92%
[16]
  Vd: 3.3 L/kg
[17]
  Cp: 109 ng/g
[18]
  Cmax: 5 ng/mL
[19]
  Cp: 72 ng/g
[20]
  fold change (FC): 1.7
[21]
  IC50: > 10 µM
[22]
  Ratio: 17
[23]
  fold change (FC): 5.1
[24]
  inhibition: Dose-dependent effect
[25]
  solubility: 175 µM (≈ 73.6 µg/mL)
[26]
  Drug uptake: 137 ng/g
[27]
  IC50: > 10 µM
[28]
  Drug uptake: 18 ng/g
[29]
  clearance: 47 mL/min/kg
[30]
  IC50: > 10 µM
[31]
  IC50: 2.05 µM
[32]
  Papp B→A: 27.5 ×10⁻⁶ cm/s

## O=C(N1CCCCC1)N1CC(O[C@H](c2ccc(Cl)cc2)c2cccnc2Cl)C1
[1]
  metabolised at 10 min: > 99%
[2]
  IC50: 42 µM
[3]
  IC50: > 500 µM
[4]
  metabolised at 10 min: 78%
[5]
  Ki: 0.007 µM

## O=C(NCc1ccccc1)N1CC(OC(c2ccc(Cl)cc2)c2cccnc2Cl)C1 (racemic)
[1]
  metabolised at 10 min: 45%
[2]
  IC50: 11.5 µM
[3]
  IC50: > 500 µM
[4]
  metabolised at 10 min: 20%

## O=C(N(CCO)Cc1ccccc1)N1CC(OC(c2ccc(Cl)cc2)c2cccnc2Cl)C1 (racemic)
[1]
  metabolised at 10 min: 83%
[2]
  IC50: > 500 µM
[3]
  IC50: > 500 µM
[4]
  metabolised at 10 min: 57%

## O=C(N1Cc2ccccc2C1)N1CC(OC(c2ccc(Cl)cc2)c2cccnc2Cl)C1 (racemic)
[1]
  metabolised at 10 min: 45%
[2]
  IC50: 3.99 µM
[3]
  IC50: 24.7 µM
[4]
  metabolised at 10 min: 17%

## O=C(N1CCc2ccccc2C1)N1CC(OC(c2ccc(Cl)cc2)c2cccnc2Cl)C1 (racemic)
[1]
  metabolised at 10 min: 82%
[2]
  IC50: 0.531 µM
[3]
  IC50: 6.82 µM
[4]
  metabolised at 10 min: 75%
